Source: patent publication US20180340933A1, “Soybean Allergy Related Epitopes” (Fraunhofer-Gesellschaft zur Foerderung der angewandten …, priority 2015, published 2018)
Ends that are not written are not given here.

Legend:
Format in all cases: binding, human
[1] = test system: antibodies (IgE and IgG) in sera of soybean-protein sensitive patients; assay: Peptide microarray, recognition of peptides by patient sera (IgE and IgG, total); settings: sera from 50 patients
Text: (§1) Epitope candidates were supplied externally (Neundorf, University of Cologne, Germany). The peptide is synthesised with the following structure: Ac-N-epitope sequence-C-Ebes-Lys(γ-N3)-amide (Ebes=amino-3,6-dioxaoctyl-succinamic acid). The peptide sequences were based on either the naïve soybean protein sequence (Pr) or the mimotope from phage display experiment (Ph). The peptide length varied between eight and nineteen amino acids. Glass slides were coated with Dibenzocyclooctyl (DBCO). The peptides were immobilized using different concentrations (81 ng/μl, 27 ng/μl or 9 ng/μl) on glymo-covered slides using click chemistry.
(§2) Each slide was blocked for 30 min with PBS containing 0.1% (v/v) Tween-20 and 1% (w/v) BSA, pH 7.4. For the incubation with sera cover slides (HybriWell™. 60 mm×21 mm×0.15) were used. Sera from 50 patients with differently intense prick reaction to soy milk were tested. The slides were incubated with 100 μl sera from the soybean-sensitive patients diluted 1:50 in blocking buffer overnight at 4° C. After two washes in washing buffer (PBS containing 0.1% (v/v) Tween-20, pH 7.4) the slides were shaken at 200 rpm for 60 min in a mouse-anti human IgE antibody (Abcam, Cambridge, UK, ab99834) diluted to 100 ng/ml or goat-anti human IgG antibody Cy5 (Abcam, Cambridge, UK, ab97172) diluted to 100 ng/ml in blocking buffer. After two further washes, bound IgG and IgE were detected by incubating the array for 60 min at room temperature with the secondary Cy5-labeled goat anti-mouse antibody (life technologies, Thermo Fisher Scientific, Waltham, Mass., USA, A10524) diluted to 400 ng/ml in blocking buffer. Fluorescence signals on the array were detected in a microarray reader (Geneprix 4200A) at 635 nm and the data were evaluated using GenePix® Pro 6 software to determine the signal intensity of each peptide spot. The software calculated the signal to noise ratio (SNR) for every spot. An overall threshold of 5 signal to noise ratio units was set, and signals above this threshold were assumed to indicate positive recognition by the patient sera.

[2] = test system: IgE of sera from soybean-sensitive patients; assay: Peptide microarray, immune status of soybean-sensitive patients: IgE detection; settings: sera from 50 patients, diluted 1:50; positive = signal to noise ratio above 5
Text: as §1, §2

[3] = test system: IgG of sera from soybean-sensitive patients; assay: Peptide microarray, immune status of soybean-sensitive patients: IgG detection; settings: sera from 50 patients, diluted 1:50; positive = signal to noise ratio above 5
Text: as §1, §2

[4] = test system: antibodies of serum from patients with soy allergy; assay: Phage display affinity selection and panning (ENTE1 library), sequencing and statistical motif analysis; settings: for all three epitopes (SEQ ID NO.: 17, 20, 15) recognized by the same patient: 23 patients; for epitope recognized by patients / two epitopes (SEQ ID NO.: 15, SEQ ID NO.: 17) recognized by the same patients: number of patients out of 23; for sequence count (lcount): 2013_S1_2. Panning
Text: Strong immunodominant allergic proteins, such as P34 thiol protease (Gly m Bd 30K), are known to induce allergic reactions, whereas other soybean proteins, although no potent inducers of a primary allergic response, can nevertheless trigger effector responses due to their binding by IgE. […] For example, only 65% of soybean sensitive individuals carry IgE recognizing P34 thiol protease (Gly m Bd 30K), which is considered one of the strongest allergenic soybean proteins (Yang et al., 2011). […] To identify many specific epitopes, i.e. amino acid sequences of soybean proteins, recognized by antibodies of sensitive patients, with high resolution down to the individual amino acids involved, the inventors applied a novel approach using a specific random phage library (EP 14 166 662.8). This phage library is generated using triplet codons with specific limitations, such that most amino acids are regularly represented throughout the entire library. In consequence, the library covers an unusually broad range of sequence variability and allows particular reliable statistical analysis. The library was contacted with serum samples derived from a biobank of 50 different soybean protein sensitive patients. After phage selection, the amino acid sequences that were bound by the patients' antibodies (anti-[allergen antibody] amino acid sequence) were identified by next generation sequencing and the results statistically analyzed. To confirm the allergy relevance of the identified amino acid sequences, their reactivity with patient IgE was determined by peptide arrays. Thereby, the inventors identified more than 300 potentially allergenic epitopes from different soybean proteins. The identified epitopes could be assigned to a total of 23 soybean proteins (Table 1) including P34 thiol protease (Gly m Bd 30K), β-conglycinin (Gly m Bd60 K) and Gly m Bd 28K, which are considered major soybean allergenic proteins (Yang et al., 2011).
24 μg of serum protein from patients with soy allergy were diluted in 2.5 ml PBS and coated in protein binding Immuno™ Tubes with Maxisorp™ for 1 h at 4° C. at 18 rpm (negative control: PBS). The coated tubes were washed with 2.5 ml blocking buffer (5% NFDM/1×PBS) and incubated with 4 ml blocking buffer at 4° C. for at least 15 min (18 rpm). The tubes were washed three times with 4 ml wash buffer I (1×PBS). 1 ml blocking buffer containing 30 μg of non-allergic serum protein and the phage library ENTE1 was added to each tube. The tubes were incubated for 2 h at 4° C. (18 rpm). After incubation, the tubes were washed 5 times with 1 ml 0.1% Tween/1×PBS and subsequently with 0.5% Tween/1×PBS. Then the bound phages were eluted using 1 ml of elution buffer (0.1 M Glycin.HCl pH 2.2). The tubes were incubated 5 min and vortexed several times. The eluate was immediately neutralized with 200 μl neutralization buffer (1 M Tris.HCl pH 8.2). In the first selection round 4×10^11 cfu of the ENTE1-library were used per tube. In the second selection round 1000×the recovered phages were inserted.
TG1 (λ) cells were grown in 250 ml baffled culture flasks in 10 ml dYT at 37° C. until they reached an OD600 about 0.5-1.0. The cells were incubated with eluted phage for 20 min at 37° C. with 100 rpm agitation. After incubation, the solution was immediately poured on dYT-agar plates (25×25 cm) containing 200 μg/ml ampicillin and incubated overnight at 30° C.
After overnight incubation the colonies were resuspended in 25 ml dYT containing 1×10^10 cfu/ml M13K07. The cells were diluted in 25 ml dYT containing 500 μg/ml ampicillin and 1×10^10 cfu/ml M13K07 using a 250 ml baffled culture flasks to obtain a cell density of OD600 0.5. The cells were incubated for 1 h at 37° C. with 180 rpm agitation. Afterwards the culture was growing about 13 h at 30° C. with 180 rpm agitation. […]

DEGEQPRPFPFPRPR (peptide P7) [54]
total (IgE- and IgG-positive sera) [1]: 4
Number of IgE-positive sera [2]: 2
Number of IgG-positive sera [3]: 2

GYNPCRQEEDEELHHKC (peptide P19) [104]
total (IgE- and IgG-positive sera) [1]: 15
Number of IgE-positive sera [2]: 9
Number of IgG-positive sera [3]: 6

SHHDQPRQHA (peptide P4) [28]
total (IgE- and IgG-positive sera) [1]: 18
Number of IgE-positive sera [2]: 12
Number of IgG-positive sera [3]: 6

ISQQDRHRI (peptide P16) [154]
total (IgE- and IgG-positive sera) [1]: 42
Number of IgE-positive sera [2]: 28
Number of IgG-positive sera [3]: 13

RRFYLAGNQEQEFL (peptide P15) [126]
total (IgE- and IgG-positive sera) [1]: 6
Number of IgE-positive sera [2]: 3
Number of IgG-positive sera [3]: 2

EVSFASQVLIY (peptide P3) [94]
total (IgE- and IgG-positive sera) [1]: 9
Number of IgE-positive sera [2]: 6
Number of IgG-positive sera [3]: 3

NSERD (glycine max) [SEQ ID NO.: 15]
all three epitopes (SEQ ID NO.: 17, 20, 15) recognized by the same patient [4]: one
epitope recognized by patients [4]: 7/23
two epitopes (SEQ ID NO.: 15, SEQ ID NO.: 17) recognized by the same patients [4]: 5/23

GFNLCNRDRPAP (Ac-GFNLCNRDRPAP; not fully specified (C-terminus); also: Ebes linker, place not given here, Lys(azide), place not given here) [Peptide P1, 100]
total (IgE- and IgG-positive sera) [1]: 8
Number of IgE-positive sera [2]: 4
Number of IgG-positive sera [3]: 4

SDKYQEEFQPR (peptide P10) [127]
total (IgE- and IgG-positive sera) [1]: 12
Number of IgE-positive sera [2]: 10
Number of IgG-positive sera [3]: 1

GIEPCSKYSQHQQHVQN (glycine max) [SEQ ID NO.: 706]
sequence count (lcount) [4]: 250

KVLFSREEGQQQ (peptide P6) [35]
total (IgE- and IgG-positive sera) [1]: 31
Number of IgE-positive sera [2]: 21
Number of IgG-positive sera [3]: 9

HAANVVGNKESQREAR [Peptide P18]
total (IgE- and IgG-positive sera) [1]: 9
Number of IgE-positive sera [2]: 8
Number of IgG-positive sera [3]: 1

TEKYQQNSSG (peptide P11) [127]
total (IgE- and IgG-positive sera) [1]: 5
Number of IgE-positive sera [2]: 2
Number of IgG-positive sera [3]: 3

EIPRPR (glycine max) [SEQ ID NO.: 20]
all three epitopes (SEQ ID NO.: 17, 20, 15) recognized by the same patient [4]: one
epitope recognized by patients [4]: 3/23

EFLKYQQEQG (peptide P12) [127]
total (IgE- and IgG-positive sera) [1]: 24
Number of IgE-positive sera [2]: 12
Number of IgG-positive sera [3]: 12

GVYNSQVDDEEEQNQRD (peptide P13) [159]
total (IgE- and IgG-positive sera) [1]: 8
Number of IgE-positive sera [2]: 7
Number of IgG-positive sera [3]: 1

QHQQ
motive count, first panning ([4]; Serum 1, 1. Panning round): 407 counts
motive count, second panning ([4]; Serum 1, 2. Panning round): 825 counts

QDQEEDEEDE (peptide P20) [104]
total (IgE- and IgG-positive sera) [1]: 7
Number of IgE-positive sera [2]: 5
Number of IgG-positive sera [3]: 2

HIQEEECEGDL (peptide P8) [50]
total (IgE- and IgG-positive sera) [1]: 4
Number of IgE-positive sera [2]: 2
Number of IgG-positive sera [3]: 2

FDQKESQHFS (peptide P17) [345]
total (IgE- and IgG-positive sera) [1]: 2
Number of IgE-positive sera [2]: 0
Number of IgG-positive sera [3]: 1

RNQACHA (glycine max) [SEQ ID NO.: 17]
all three epitopes (SEQ ID NO.: 17, 20, 15) recognized by the same patient [4]: one
epitope recognized by patients [4]: 15/23
two epitopes (SEQ ID NO.: 15, SEQ ID NO.: 17) recognized by the same patients [4]: 5/23

HITFSREEGSI (peptide P5) [35]
total (IgE- and IgG-positive sera) [1]: 14
Number of IgE-positive sera [2]: 12
Number of IgG-positive sera [3]: 2

VEEEEECEEGQI (peptide P9) [50]
total (IgE- and IgG-positive sera) [1]: 50
Number of IgE-positive sera [2]: 32
Number of IgG-positive sera [3]: 17

HVVEQEFLD (peptide P14) [126]
total (IgE- and IgG-positive sera) [1]: 28
Number of IgE-positive sera [2]: 23
Number of IgG-positive sera [3]: 5

GEIMCWREVVTQHQQHA (glycine max) [SEQ ID NO.: 707]
sequence count (lcount) [4]: 122

SQSHGFHGLCNRDHNCA (peptide P2) [100]
total (IgE- and IgG-positive sera) [1]: 8
Number of IgE-positive sera [2]: 7
Number of IgG-positive sera [3]: 1
